Patent US9745348B2 (The University of Manchester, priority 2011, dated 2017)
pIC50: −log10 of the molar value. Where a SMILES comes first, the peptide text is derived from it. [ ]: non-standard residue; d: D form. Orn = NCCC[C@H](N)C(=O)O

What was measured:
E. coli, (EC) = test: Bacterial growth by optical density, peptides with or without surfactants; format: cell-based, Escherichia coli
Protocol: Bacteria E. coli, (EC) and S. aureus, (SA) were grown in LB media at 37° C. with continuous shaking for 24 hours. The bacterial concentration was then adjusted such that the absorbance at 600 (A600) was controlled to ca 0.2 unit. The bacteria suspensions with the peptides were incubated in 96-well tissue culture plates. The total medium volume in each well was […]. […] Controls with media only and media with bacteria only were run alongside the peptide bacteria mixed suspensions. Measurements were taken at time t=0, t=20 and t=72 hours using optical density cell plate reader. The optical density (OD) is representative of the relative amount of bacterial growth within the medium.
The antibacterial activities of the designed short peptides in the presence of selected surfactants were investigated to determine if the peptides would sustain their antibacterial performance when surfactants are present. Bacteria E. coli, (EC) and S. aureus, (SA) were grown in LB media at 37° C. with continuous shaking for 24 hours. The bacterial concentrations were then adjusted such that the absorbance at 600 (A600) was controlled to ca 0.2 unit. The bacteria suspensions with the peptides were incubated in 96-well tissue culture plates. The total medium volume in each well was […]. […] Controls used were (i) media only, (ii) media with bacteria only and (iii) bacteria with media containing peptides at a particular concentration. These were run alongside the peptide+bacteria and selected surfactant mixed suspensions. Measurements were taken at time t=0, t=20 and t=72 hours using optical density cell plate reader. Surfactants were added such that the final concentration was 1% within the wells.

[1] = system: HeLa and HL60 cancer cell lines; details: 24 h
Protocol: Antitumor activities of peptides were measured using the 3-(4,5-dimethylthiazol-2-yl)-2,-diphenyl tetrazolium bromide (MTT) assay, and the IC50 value was calculated as the concentration of peptide that induced 50% growth inhibition compared to the untreated control.
HeLa and HL60 cells were seeded in 96-well plates (10^5 cells/well) in a complete medium [Iscove's modified dulbecco's medium (IMDM)] with 10% fetal bovine serum (FBS) for 24 h before peptide treatment. […] Following incubation with peptides, 20 μL of a 5 mg/ml solution MTT reagent was added to each well and incubated for 4 h at 37° C. After removing the supernatant, 150 μL of dimethyl sulfoxide (DMSO) was added to dissolve the formazan crystals that remained in the wells. The absorbance was determined using a microplate ELISA Reader at 570 nm. Wells without cells for blanking the spectrophotometer and the cells without peptides were taken as negative controls.

[2] = MTT viability of fibroblasts over three days; format: cell-based, human; details: human, adult fibroblasts (HDFa cells)
Protocol: (§1) MTT assay: Cell viability and proliferation is widely assessed by the MTT assay as already described previously.
(§2) The fibroblasts cells, Neonatal (HDFn) and Adult (HDFa), were both grown until greater than 80% confluent. […] After 24 hour incubation the culture medium was replaced with fresh medium containing an appropriate amount of the peptide for investigation.
(§3) The viability of the fibroblasts, Adult (HDFa) and Neonatal (HDFn) cells in the presence of surfactants was tested by MTT assay over three days relative to control wells containing cells only.

in vitro = format: cell-based; details: human, neonatal fibroblasts (HDFn cells)
Protocol: as §1
The fibroblasts cells, Neonatal (HDFn) and Adult (HDFa), were both grown until greater than 80% confluent. The cells were then harvested and seeded into micro well plate at cell densities of 5000 cells/well in a volume […] of medium. After 24 hour incubation the culture medium was replaced with fresh medium containing an appropriate amount of the peptide for investigation.

[3] = system: fibroblasts Adult (HDFa) cells; test: MTT viability of fibroblasts over three days; format: cell-based, human
Protocol: as §1, §2, §3

## CC1(C)S[C@@H]2[C@H](NC(=O)[C@H](N)c3ccccc3)C(=O)N2[C@H]1C(=O)O [Ampicillin, ampicillin]
E. coli, (EC); T = 0 HOUR, NO SURF, 25 μM
  bacterial growth (optical density): 0.20
E. coli, (EC); T = 0 HOUR, NO SURF, 50 μM
  bacterial growth (optical density): 0.20
E. coli, (EC); T = 0 HOUR, NO SURF, 100 μM
  bacterial growth (optical density): 0.19
E. coli, (EC); T = 0 HOUR, with 1% C12TAB, 25 μM
  bacterial growth (optical density): 0.27
E. coli, (EC); T = 0 HOUR, with 1% C12TAB, 50 μM
  bacterial growth (optical density): 0.26
E. coli, (EC); T = 0 HOUR, with 1% C12TAB, 100 μM
  bacterial growth (optical density): 0.27
E. coli, (EC); T = 0 HOUR, with 1% F127, 25 μM
  bacterial growth (optical density): 0.20
E. coli, (EC); T = 0 HOUR, with 1% F127, 50 μM
  bacterial growth (optical density): 0.20
E. coli, (EC); T = 0 HOUR, with 1% F127, 100 μM
  bacterial growth (optical density): 0.17
E. coli, (EC); T = 0 HOUR, with 1% Mx, 25 μM
  bacterial growth (optical density): 0.21
E. coli, (EC); T = 0 HOUR, with 1% Mx, 50 μM
  bacterial growth (optical density): 0.20
E. coli, (EC); T = 0 HOUR, with 1% Mx, 100 μM
  bacterial growth (optical density): 0.20
E. coli, (EC); T = 0 HOUR, with 1% SLES, 25 μM
  bacterial growth (optical density): 0.22
E. coli, (EC); T = 0 HOUR, with 1% SLES, 50 μM
  bacterial growth (optical density): 0.18
E. coli, (EC); T = 0 HOUR, with 1% SLES, 100 μM
  bacterial growth (optical density): 0.15
E. coli, (EC); T = 0 HOUR, with 1% Tt, 25 μM
  bacterial growth (optical density): 0.22
E. coli, (EC); T = 0 HOUR, with 1% Tt, 50 μM
  bacterial growth (optical density): 0.15
E. coli, (EC); T = 0 HOUR, with 1% Tt, 100 μM
  bacterial growth (optical density): 0.14
E. coli, (EC); T = 20 HOUR, NO SURF, 25 μM
  bacterial growth (optical density): 0.20
E. coli, (EC); T = 20 HOUR, NO SURF, 50 μM
  bacterial growth (optical density): 0.16
E. coli, (EC); T = 20 HOUR, NO SURF, 100 μM
  bacterial growth (optical density): 0.16
E. coli, (EC); T = 20 HOUR, with 1% C12TAB, 25 μM
  bacterial growth (optical density): 0.27
E. coli, (EC); T = 20 HOUR, with 1% C12TAB, 50 μM
  bacterial growth (optical density): 0.26
E. coli, (EC); T = 20 HOUR, with 1% C12TAB, 100 μM
  bacterial growth (optical density): 0.26
E. coli, (EC); T = 20 HOUR, with 1% F127, 25 μM
  bacterial growth (optical density): 0.15
E. coli, (EC); T = 20 HOUR, with 1% F127, 50 μM
  bacterial growth (optical density): 0.13
E. coli, (EC); T = 20 HOUR, with 1% F127, 100 μM
  bacterial growth (optical density): 0.14
E. coli, (EC); T = 20 HOUR, with 1% Mx, 25 μM
  bacterial growth (optical density): 0.32
E. coli, (EC); T = 20 HOUR, with 1% Mx, 50 μM
  bacterial growth (optical density): 0.28
E. coli, (EC); T = 20 HOUR, with 1% Mx, 100 μM
  bacterial growth (optical density): 0.25
E. coli, (EC); T = 20 HOUR, with 1% SLES, 25 μM
  bacterial growth (optical density): 0.08
E. coli, (EC); T = 20 HOUR, with 1% SLES, 50 μM
  bacterial growth (optical density): 0.08
E. coli, (EC); T = 20 HOUR, with 1% SLES, 100 μM
  bacterial growth (optical density): 0.06
E. coli, (EC); T = 20 HOUR, with 1% Tt, 25 μM
  bacterial growth (optical density): 0.09
E. coli, (EC); T = 20 HOUR, with 1% Tt, 50 μM
  bacterial growth (optical density): 0.07
E. coli, (EC); T = 20 HOUR, with 1% Tt, 100 μM
  bacterial growth (optical density): 0.07

## CC[C@H](C)[C@H](NC(=O)[C@H](CCCN)NC(=O)[C@H](CCCN)NC(=O)[C@@H](NC(=O)[C@@H](NC(=O)[C@H](CCCN)NC(=O)[C@H](CCCN)NC(=O)[C@@H](NC(=O)[C@@H](NC(=O)[C@H](CCCN)NC(=O)[C@H](CCCN)NC(=O)[C@@H](NC(=O)[C@@H](NC(=O)CN)[C@@H](C)CC)[C@@H](C)CC)[C@@H](C)CC)[C@@H](C)CC)[C@@H](C)CC)[C@@H](C)CC)C(N)=O [GO, G(IIOO)3 I-NH2] (H-GII[Orn][Orn]II[Orn][Orn]II[Orn][Orn]I-NH2)
[1]
  pIC50: 4.60 to 5.40
[2]
  viability at 24 h, 5 µM: 101%
  viability at 24 h, 25 µM: 98%
  viability at 24 h, 50 µM: 95%
  viability at 24 h, 100 µM: 88%
  viability at 48 h, 5 µM: 95%
  viability at 48 h, 25 µM: 92%
  viability at 48 h, 50 µM: 83%
  viability at 48 h, 100 µM: 75%
  viability at 72 h, 5 µM: 90%
  viability at 72 h, 25 µM: 82%
  viability at 72 h, 50 µM: 78%
  viability at 72 h, 100 µM: 70%
In vitro
  viability at 24 h, 5 µM: 95%
  viability at 24 h, 25 µM: 91%
  viability at 24 h, 50 µM: 88%
  viability at 24 h, 100 µM: 83%
  viability at 48 h, 5 µM: 91%
  viability at 48 h, 25 µM: 85%
  viability at 48 h, 50 µM: 81%
  viability at 48 h, 100 µM: 75%
  viability at 72 h, 5 µM: 85%
  viability at 72 h, 25 µM: 80%
  viability at 72 h, 50 µM: 75%
  viability at 72 h, 100 µM: 65%

## CCCCCCCCCCCCOCCOCCOCCOCCOCCO [Helix C12E5, Pentaethylene glycol monododecyl ether]
[3]; human, 1 day, 0.5 %
  MTT results (relative MTT reading): 0.01
[3]; human, 2 day, 0.5 %
  MTT results (relative MTT reading): 0.01
[3]; human, 3 day, 0.5 %
  MTT results (relative MTT reading): 0.01

## CCCCCCCCCCCCOCCOCCOCCOCCOCCOCCO [Helix C12E6, Hexaethylene glycol monododecyl ether]
[3]; human, 1 day, 1 %
  MTT results (relative MTT reading): 0.01
[3]; human, 2 day, 1 %
  MTT results (relative MTT reading): 0.01
[3]; human, 3 day, 1 %
  MTT results (relative MTT reading): 0.01

## CCCCCCCCCCCCOS(=O)(=O)[O-].[Na+] [SDS, Sodium dodecyl sulphate]
[3]; HDFa, surfactant 1%, Day 1
  MTT results (relative MTT reading): 0.01
[3]; HDFa, surfactant 1%, Day 2
  MTT results (relative MTT reading): 0.01
[3]; HDFa, surfactant 1%, Day 3
  MTT results (relative MTT reading): 0.01
